# Laboratory results as given in patent US6338946B1, “Method for assaying immunosuppressant” (Fujisawa Pharmaceutical Co., Ltd., priority 1994, dated 2002).
# Assays:
# [1] = target: T1, complex of FKBP-12, bovine calcineurin, bovine calmodulin and calcium ion (UniProt P48452+P62942+P63099); test: Complex formation assay with solid-phase FKBP-12, detected by anti-calcineurin enzyme immunoassay (fluorometry); type: binding, human FKBP-12; bovine calcineurin and calmodulin; details: for Concentration dependence of fluorescence intensity (in words): Table 1 concentration series; for Complex forming activity (relative %): relative to FK506 = 100, calculated from Table 1 data
# T1 construct: made in house; host or cells: E. coli HB101 (vector pFKBP333, tryptophan promoter)
# Description: The plate was then washed 3 times with the same phosphate buffer solution as used in Preparation 1. FKBP-12 was thus bound to each well. An assay buffer (300 μl) having the composition shown below was added to each well and, after 15 minutes, it was removed, to block residual protein binding sites in each well. […] A solution (5 mg/ml) of a crude product, prepared by the conventional method, in 20 mM Tris-hydrochloride (pH 7.0) was 40-fold diluted with the above-mentioned assay buffer. Commercial bovine calmodulin was appropriately diluted with the above-mentioned assay buffer (to give a final concentration of 95 nM in the well). A methanol solution (1 mg/ml) of FK506 was appropriately diluted with the above-mentioned assay buffer. (3) Each well was washed (4 times) with the same buffer as the above-mentioned assay buffer except that it was free of bovine serum albumin and, then, an appropriate dilution (100 μl), in the assay buffer, of a rabbit polyclonal antibody recognizing the calcineurin Aα chain as obtained by the known method described, for example, in J. Neurochem., 58, 1643-1651 (1992) was added to each well, and the reaction was allowed to proceed at room temperature for 1 hour. (4) Each well was washed (4 times) with the same buffer as the above-mentioned assay buffer except that it was free of bovine serum albumin and, then, an appropriate dilution (100 μl), in the assay buffer, of alkaline phosphatase-labeled anti-rabbit IgG (Vector Laboratories) was added to each well. (5) Each well was washed (4 times) with the same buffer as the assay buffer except that it was free of bovine serum albumin and, then, 200 μl of a 4-methylumbelliferyl phosphate (hereinafter, 4-MU) substrate solution (1 mM), prepared as described below, was added to each well and, after the lapse of 20 minutes at room temperature, fluorometry (excitation wavelength 360 nm; emission wavelength 460 nm) was carried out using Cytofluor 2350 (trademark, Millipore Co. Ltd, USA). […] Ltd) was prepared with water and further diluted with a buffer solution (10 mM, pH 10.0) comprising diethanolamine (0.7 ml/l) and magnesium chloride hexahydrate (0.1 g/l) to give a 1 mM 4-MU substrate solution. Using the metabolites M-II and M-III shown below, which are already known as metabolites obtainable upon treatment of FK506 with rat liver microsome, as described, for example, in Drug Metabolism and Disposition, 21 (6), 971-977, quantitative analysis was carried out in the same manner as in Example 1.
# FKBP-12 = FKBP-12 (Homo sapiens, UniProt P62942); test: FKBP-12 binding activity measurement using 3H-dihydro-FK506; details: for FKBP-12 binding activity (relative %): relative to FK506 = 100
# FKBP-12, sequence (P62942 whole entry): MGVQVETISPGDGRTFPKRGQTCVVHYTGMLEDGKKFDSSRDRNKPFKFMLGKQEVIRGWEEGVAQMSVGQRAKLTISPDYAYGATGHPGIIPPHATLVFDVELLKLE
# Description: (1) The FKBP-12 binding activity measurement was carried out in the same manner as described in Clinical Chemistry, 38/7, 1307-1310 (1992), using ^3H-dihydro-FK506, FKBP-12, dextran charcoaled, etc.
# [2] = tested on: mixed lymphocyte reaction; test: in vitro mixed lymphocyte reaction (MLR) test; type: cell-based; details: for Immunosuppressive activity (in words): MLR; for Immunosuppressive activity (MLR) (relative %): relative to FK506 = 100
# Description: (2) The immunosuppressive activity was measured by the well-known in vitro mixed lymphocyte reaction (MLR) test described, for example, in European Patent Application EP-0184162-A2, page 67.
Detection by the complex assay method (in words) [1],Complex forming activity (relative %) [1] [relative %],FKBP-12 binding activity (in words) (FKBP-12),FKBP-12 binding activity (relative %) (FKBP-12),SMILES,Concentration dependence of fluorescence intensity (in words) [1],Immunosuppressive activity (in words) [2],Immunosuppressive activity (MLR) (relative %) [2] [relative %]
is not detected,0,has FKBP-12 binding activity,116.0,C=CCC1/C=C(\C)CC(C)CC(O)C2OC(O)(C(=O)C(=O)N3CCCCC3C(=O)OC(/C(C)=C/C3CCC(O)C(C)C3)C(C)C(O)CC1=O)C(C)CC2OC (stereo not shown) [M-III],does not give concentration-dependent values,has no immunosuppressive activity,0
can be detected,100,–,100,"C=CC[C@@H]1/C=C(\C)C[C@H](C)C[C@H](OC)[C@H]2O[C@@](O)(C(=O)C(=O)N3CCCC[C@H]3C(=O)O[C@H](/C(C)=C/[C@@H]3CC[C@@H](O)[C@H](OC)C3)[C@H](C)[C@@H](O)CC1=O)[C@H](C)C[C@@H]2OC [FK506, 17-Allyl-1,14-dihydroxy-12-[2-(4-hydroxy-3-methoxycyclohexyl)-1-methylvinyl]-23,25-dimethoxy-13,19,21,27-tetramethyl-11,28-dioxa-4-azatricyclo[22.3.1.0^4,9]octacos-18-ene-2,3,10,16-tetraone]",give fluorescence intensities depending on their concentrations,have immunosuppressive activity,100
can be detected,79.7,–,14.2,C=CCC1/C=C(\C)CC(C)CC(OC)C2OC(O)(C(=O)C(=O)N3CCCCC3C(=O)OC(/C(C)=C/C3CCC(O)C(O)C3)C(C)C(O)CC1=O)C(C)CC2OC (stereo not shown) [M-II],give fluorescence intensities depending on their concentrations,have immunosuppressive activity,100
